# Patent publication US5256788A, “Moranoline derivatives and their production and the use of moranoline and its derivatives as a stabilizing agent for enzymes” (Nippon Shinyaku Co. Ltd., priority 1989, dated 1993)
# Molecular target: T1, immobilized CGTase (Geobacillus stearothermophilus, UniProt P31797)
# T1 construct: purchased Hayashibara Biochemical Research Institute
# T1 sequence (P31797 32-711): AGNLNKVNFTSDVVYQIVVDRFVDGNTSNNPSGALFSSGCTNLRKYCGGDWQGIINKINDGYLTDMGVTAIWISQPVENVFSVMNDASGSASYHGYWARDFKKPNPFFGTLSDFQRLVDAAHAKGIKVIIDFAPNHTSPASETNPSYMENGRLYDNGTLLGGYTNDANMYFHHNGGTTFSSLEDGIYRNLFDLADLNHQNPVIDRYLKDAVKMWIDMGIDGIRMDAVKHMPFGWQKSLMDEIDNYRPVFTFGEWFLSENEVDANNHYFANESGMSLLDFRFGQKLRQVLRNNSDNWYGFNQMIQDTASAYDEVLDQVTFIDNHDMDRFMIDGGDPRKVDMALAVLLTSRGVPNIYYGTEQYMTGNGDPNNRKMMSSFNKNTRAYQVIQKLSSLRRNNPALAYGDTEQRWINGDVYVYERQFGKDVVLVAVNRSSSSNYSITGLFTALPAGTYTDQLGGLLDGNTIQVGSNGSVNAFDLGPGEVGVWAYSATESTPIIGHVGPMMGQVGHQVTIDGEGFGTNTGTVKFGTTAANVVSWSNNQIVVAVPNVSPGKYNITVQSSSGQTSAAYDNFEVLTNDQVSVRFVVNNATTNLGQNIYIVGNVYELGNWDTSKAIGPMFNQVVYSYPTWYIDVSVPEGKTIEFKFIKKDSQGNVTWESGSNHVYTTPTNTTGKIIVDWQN
# Test: Stabilization of immobilized CGTase in sugar transfer reaction solution of moranoline (enzyme activity retention rate)
# Assay type: biochemical, Bacillus stearothermophilus
# Settings: 2.5 w/v% moranoline and 25 w/v% Amicol No. 6L
# Experimental: The immobilized CGTase, 10 ml, obtained in Reference Example 1 was added to 100 ml of aqueous solution with the pH being not adjusted containing 2.5 w/v% of moranoline and 25 w/v% of Amicol No. 6L [manufactured by Nichiden Chemical Co., Ltd.] followed by rotary shaking at 55° C. […] (after a definite period of time as illustrated below) the beads (immobilized CGTase) were filtered through a glass filter. After thoroughly washing with water, the enzyme activity of the immobilized CGTase was determined as follows.
# (§1) The beads (washed immobilized CGTase after a definite period of time at 55° C.), 1 ml, was added to 10 ml of aqueous solution with the pH being not adjusted containing 2.5 w/v% of moranoline and 25 w/v% of Amicol No. 6L followed by reacting at 55° C. for 24 hours. The reaction solution 3 ml, was passed through 7 ml of strongly acidic ion exchange resin DOWEX 50W×2 (H ). After thoroughly washing with water, elution was performed with 0.5N ammonia water. The eluate was concentrated to dryness under reduced pressure and the residue was dissolved in 3 ml of water. 10 μl of the solution was applied to and analyzed by high performance liquid chromatography to determine a concentration of the unreacted moranoline. The analytical conditions for high performance liquid chromatography were as follows: column (Nucleosil 5NH2, 5 μm, 4 mm i.d.×25 cm), developing solvent acetonitrile-water=70:30), detector (Hitachi 655A-30, RI detector), data processor (Hitachi D-2000). [formula]
# Where the reaction progress rate was made 100 when rotary shaking started at 55° C., a relative reaction progress rate after a definite period of time passed was calculated according to the above equation. The thus obtained value was made an enzyme activity retention rate. The fact that the enzyme activity of the immobilized CGTase was stabilized by the moranoline in accordance with the present invention is clearly shown.
# The immobilized CGTase, 10 ml, obtained in Reference Example A was added to 100 ml of aqueous solution with the pH being not adjusted containing 2.5 w/v% of moranoline and 25 w/v% of Amicol No. 6L [manufactured by Nichiden Chemical Co., Ltd.] followed by rotary shaking at 55° C. After a definite period of time passed, the beads (immobilized CGTase) were filtered through a glass filter. After thoroughly washing with water, the enzyme activity of the immobilized CGTase was determined as follows. (Method for determination of enzyme activity of immobilized CGTase)
# as §1, with “24 hours” for “24 hours.”, “reaction liquid,” for “reaction solution”, “DOWEX 50W X 2 (H+).” for “DOWEX 50W×2 (H ).”, “mm i.d. X 25” for “mm i.d.×25”
# Where the reaction progress rate was made 100 when rotary shaking started at 55° C., a relative reaction progress rate after a definite period of time passed was calculated according to the above equation. The thus obtained value was made an enzyme activity retention rate.
compound,measurement,setting,value
OC[C@H]1NC[C@H](O)[C@@H](O)[C@@H]1O [moranoline],activity at 25000 µg/mL,"0 h, day 0, 55° C., start made 100",100%
same,activity at 25000 µg/mL,"336 h, day 14, 55° C.",100%
same,activity at 25000 µg/mL,"504 h, day 21, 55° C.",103%
same,activity at 25000 µg/mL,"672 h, day 28, 55° C.",102%
same,activity at 25000 µg/mL,"888 h, day 37, 55° C.",101%
same,activity at 25000 µg/mL,"1272 h, day 53, 55° C.",102%
same,activity at 25000 µg/mL,"1560 h, day 65, 55° C.",104%
same,activity at 25000 µg/mL,"1872 h, day 78, 55° C.",101%
same,activity at 25000 µg/mL,"2232 h, day 93, 55° C.",99.7%
same,activity at 25000 µg/mL,"2400 h, day 100, 55° C.",100%
same,activity at 25000 µg/mL,"2856 h, day 119, 55° C.",97%
same,activity at 25000 µg/mL,"3360 h, day 140, 55° C.",100%
same,activity at 25000 µg/mL,"3912 h, day 163, 55° C.",99.3%
same,activity at 25000 µg/mL,"4272 h, day 178, 55° C.",98.4%
same,activity at 25000 µg/mL,"4752 h, day 198, 55° C.",92.5%
same,activity at 25000 µg/mL,"5040 h, day 210, 55° C.",95.6%
same,activity at 25000 µg/mL,"5544 h, day 231, 55° C.",92.5%
same,activity at 25000 µg/mL,"5904 h, day 246, 55° C.",93%
same,activity at 25000 µg/mL,"6288 h, day 262, 55° C.",92.3%
same,activity at 25000 µg/mL,"6576 h, day 274, 55° C.",92.5%
same,activity at 25000 µg/mL,"6912 h, day 288, 55° C.",91.7%
same,activity at 25000 µg/mL,"7248 h, day 302, 55° C.",92%
same,activity at 25000 µg/mL,"7728 h, day 322, 55° C.",92.7%
same,activity at 25000 µg/mL,"8136 h, day 339, 55° C.",91.5%
same,activity at 25000 µg/mL,"8472 h, day 353, 55° C.",93.9%
same,activity at 25000 µg/mL,"8784 h, day 366, 55° C.",90%
same,activity at 25000 µg/mL,"9912 h, day 413, 55° C.",90%
